Molecular target: T1, BACE enzyme (Homo sapiens, UniProt P56817)
T1 construct: the catalytic domain, appended by a C-terminal poly-histidine tag, is secreted out into the cellular medium; made in house; host or cells: Drosophila melanogaster S2 cells
Test: BACE enzyme inhibition, fluorescence-quenched peptide substrate MCA-EVNLDAEFK(DNP)
Assay type: biochemical
Details: 50 mM acetate, pH 4.5, 0.25 mg/ml bovine serum albumin, 2.5% DMSO; read-out: Activity Rating (based on IC50 values)
Excerpt: There are a number of methods by which inhibitors of the BACE enzyme can be identified experimentally. The enzyme can be obtained from membrane samples from natural tissues or cultured cells or can be expressed recombinantly in a host cell by well known methods of molecular biology. […] The enzymatic activity and/or ligand binding capability of the enzyme can be assessed within these membrane samples, or the enzyme can be purified to varying extents. As an illustrative example, the nucleic acid sequence encoding the pro and catalytic domains of human BACE can be appended on the 5′ end with an untranslated and signal sequence from the gene for acetylcholinesterase, and on the 3′ end with a sequence encoding a poly-histidine tag. This cDNA can then be expressed in Drosophila melanogaster S2 cells in which the signal and pro sequences of the transcribed/translated protein are removed by cellular proteases and the catalytic domain, appended by a C-terminal poly-histidine tag, is secreted out into the cellular medium. The enzyme can then be purified from the culture medium by nickel affinity chromatography by methods well known to those trained in the art [Mallender, W. et al., (2001) “Characterization of recombinant, soluble beta-secretase from an insect cell expression system.” Mol. Pharmacol. 59: 619-626]. Similar strategies for expressing and purifying various forms of BACE in bacterial, mammalian and other cell types would be known to one skilled in the art.
The enzyme thus obtained can be put in contact with a test compound and with an appropriate substrate on which enzyme-mediated peptide bond hydrolysis is known to occur. The ability of the test compound to diminish the rate of substrate hydrolysis can then be quantified as a measure of inhibition potency. Appropriate substrates can be prepared as peptides, proteins, or chemically modified versions of peptides or proteins, that contain an amino acid sequence that is recognized as a substrate by the enzyme. For example, the amino acid sequence immediately proximal to the beta-cleavage site within Swedish mutant APP is known to be recognized as a substrate for BACE. […] Longer peptide and protein substrates can also be designed by extending the amino acid composition on the N-terminal, the C-terminal, or both ends.
In one known application of (SEQ. ID. NO.:1), X is a 7-methoxycoumarin-4-acetyl (MCA) group and Y is a dinitrophenyl (DNP) group [Marcinkeviciene, J. et al., (2001) “Mechanism of inhibition of beta-site amyloid precursor protein-cleaving enzyme (BACE) by a statine-based peptide.” J. Biol. Chem. 276: 23790-23794]. When this peptide is intact, the natural fluorescence of the MCA group is quenched by its proximity to the DNP group. […] The increase in fluorescence intensity that accompanies enzyme-mediated peptide hydrolysis can be measured as a function of time to quantify the velocity of enzyme catalysis. In a typical assay system the BACE enzyme is diluted into a buffer system composed of 50 mM acetate, pH 4.5 containing 0.25 mg/ml bovine serum albumin. To this is added neat dimethyl sulfoxide (DMSO) or a stock solution of test compound dissolved in DMSO so that the final amount of DMSO in all assays is held constant at 2.5% (v:v). The enzymatic reaction is then initiated by addition of a stock solution of the substrate peptide to a known concentration. The fluorescence increase with time after substrate addition is monitored with an appropriate fluorescence detection instrument, such as a microplate reader or spectrofluorometer. The slope of the signal vs. time plot (progress curve) for samples to which only DMSO was added is taken as a measure of the uninhibited velocity and represents 100% enzymatic activity.

T1 sequence (P56817 75-416 limits assumed): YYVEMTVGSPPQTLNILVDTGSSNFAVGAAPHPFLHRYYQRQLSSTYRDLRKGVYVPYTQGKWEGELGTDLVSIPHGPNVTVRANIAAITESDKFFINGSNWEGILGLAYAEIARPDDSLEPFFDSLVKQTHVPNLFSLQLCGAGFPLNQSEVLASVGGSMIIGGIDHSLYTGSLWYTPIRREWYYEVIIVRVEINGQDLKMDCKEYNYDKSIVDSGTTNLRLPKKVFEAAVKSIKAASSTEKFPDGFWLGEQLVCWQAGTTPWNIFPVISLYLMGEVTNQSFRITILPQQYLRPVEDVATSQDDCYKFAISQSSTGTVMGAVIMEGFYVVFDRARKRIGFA

| Compound | IC50 [nM] |
| --- | --- |
| CCOC(=O)N[C@]1(C(C)CC)CCN([C@@H](CCc2ccccc2)C(=O)N[C@@H](Cc2ccccc2)[C@H](O)CNCc2cccc(OC)c2)C1=O (single isomer, unassigned) [Example 14] | < 100 |
| CCC(C)[C@@]1(NC(=O)OC)CCN([C@@H](CCc2ccccc2)C(=O)N[C@@H](Cc2ccccc2)[C@@H](O)CNCc2cccc(OC)c2)C1=O (single isomer, unassigned) [Example 15] | 1000 to 50000 |
| CCC(C)[C@@]1(NC(=O)OC)CCN([C@@H](CCc2ccccc2)C(=O)N[C@@H](Cc2ccccc2)[C@H](O)CNCc2cccc(OC)c2)C1=O (single isomer, unassigned) [Example 16] | < 100 |
| CCC(C)[C@@]1(NC(=O)CCc2cnc[nH]2)CCN([C@@H](CCc2ccccc2)C(=O)N[C@@H](Cc2ccccc2)[C@@H](O)CNCc2cccc(OC)c2)C1=O (single isomer, unassigned) [Example 21] | 100 to 1000 |
| CCC(C)[C@@]1(NC(=O)CN)CCN([C@@H](CCc2ccccc2)C(=O)N[C@@H](Cc2ccccc2)[C@H](O)CNCc2cccc(OC)c2)C1=O (single isomer, unassigned) [Example 22] | 100 to 1000 |
| CCC(C)[C@@]1(NC(=O)CN)CCN([C@@H](CCc2ccccc2)C(=O)N[C@@H](Cc2ccccc2)[C@@H](O)CNCc2cccc(OC)c2)C1=O (single isomer, unassigned) [Example 23] | 1000 to 50000 |
| COc1cccc(CNC[C@@H](O)[C@H](Cc2ccccc2)NC(=O)[C@H](CCc2ccccc2)N2CCC(CC(C)C)(NC(C)=O)C2=O)c1 (stereo in doubt) [Example 28, (2S)-2-(3(S)-acetylamino-3-(isobutyl)-2-oxo-pyrrolidin-1-yl)-N-[(1S,2R)-1-benzyl-2-hydroxy-3-(3-methoxy-benzylamino)-propyl]-4-phenyl-butyramide] | < 100 |
| CC(=O)NC1(CC(C)C)CCN([C@@H](CCc2ccccc2)C(=O)N[C@@H](Cc2ccccc2)[C@H](O)CNCC2CC2)C1=O (stereo in doubt) [Example 32, (2S)-2-(3(S)-acetylamino-3-(isobutyl)-2-oxo-pyrrolidin-1-yl)-N-[(1S,2R)-1-benzyl-2-hydroxy-3-(cyclopropylmethyl)amino-propyl]-4-phenyl-butyramide] | 100 to 1000 |
| COc1cccc(CNC[C@@H](O)[C@H](Cc2cc(F)cc(F)c2)NC(=O)[C@H](CCc2ccccc2OC)N2CCC(CC3CC3)(NC(C)=O)C2=O)c1 (stereo in doubt) [Example 38, (2S)-2-(3(S)-acetylamino-3-(cyclopropylmethyl)-2-oxo-pyrrolidin-1-yl)-N-[(1S,2R)-1-(3,5-difluorobenzyl)-2-hydroxy-3-(3-methoxybenzylamino)-propyl]-4-(2-methoxyphenyl)-butyramide] | < 100 |
| COc1cccc(CNC[C@@H](O)[C@H](Cc2cc(F)cc(F)c2)NC(=O)[C@H](CCc2cccc(F)c2)N2CCC(CC3CC3)(NC(C)=O)C2=O)c1 (stereo in doubt) [Example 40, (2S)-2-(3(S)-acetylamino-3-(cyclopropylmethyl)-2-oxo-pyrrolidin-1-yl)-N-[(1S,2R)-1-(3,5-difluorobenzyl)-2-hydroxy-3-(3-methoxybenzylamino)-propyl]-4-(3-fluorophenyl)-butyramide] | < 100 |
| COc1cccc(CNC[C@@H](O)[C@H](Cc2cc(F)cc(F)c2)NC(=O)[C@H](CCc2ccc(F)cc2)N2CCC(CC3CC3)(NC(C)=O)C2=O)c1 (stereo in doubt) [Example 41, (2S)-2-(3(S)-acetylamino-3-(cyclopropylmethyl)-2-oxo-pyrrolidin-1-yl)-N-[(1S,2R)-1-(3,5-difluorobenzyl)-2-hydroxy-3-(3-methoxybenzylamino)-propyl]-4-(4-fluorophenyl)-butyramide] | < 100 |
| COc1cccc(CC[C@@H](C(=O)N[C@@H](Cc2cc(F)cc(F)c2)[C@H](O)CNCc2cccc(OC)c2)N2CCC(CC3CC3)(NC(C)=O)C2=O)c1 (stereo in doubt) [Example 42, (2S)-2-(3(S)-acetylamino-3-(cyclopropylmethyl)-2-oxo-pyrrolidin-1-yl)-N-[(1S,2R)-1-(3,5-difluorobenzyl)-2-hydroxy-3-(3-methoxybenzylamino)-propyl]-4-(3-methoxyphenyl)-butyramide] | < 100 |
| COc1cccc(CNC[C@@H](O)[C@H](Cc2cc(F)cc(F)c2)NC(=O)[C@H](CCc2ccccc2)N2CC[C@](NC(C)=O)(C(C)C)C2=O)c1 [Example 1, (2S)-2-(3-Acetylamino-3-isopropyl-2-oxo-pyrrolidin-1-yl)-N-[(1S,2R)-1-(3,5-difluoro-benzyl)-2-hydroxy-3-(3-methoxy-benzylamino)-propyl]-4-phenyl-butyramide] | < 100 |
| CC[C@H](C)[C@@]1(NC(C)=O)CCN([C@@H](CCc2ccccc2)C(=O)N[C@@H](Cc2cc(F)cc(F)c2)[C@H](O)CNCc2cccc(OC)c2)C1=O [Example 2, (2S)-2-(3(S)-Acetylamino-3-((S)-sec-butyl)-2-oxo-pyrrolidin-1-yl)-N-[(1S,2R)-1-(3,5-difluoro-benzyl)-2-hydroxy-3-(3-methoxy-benzylamino)-propyl]-4-phenyl-butyramide] | < 100 |
| CC[C@H](C)[C@@]1(NC(C)=O)CCN([C@@H](CCc2ccccc2)C(=O)N[C@@H](Cc2ccccc2)[C@H](O)CNCc2cccc(OC)c2)C1=O [Example 3, (2S)-2-(3(S)-Acetylamino-3-((S)-sec-butyl)-2-oxo-pyrrolidin-1-yl)-N-[(1S,2R)-1-benzyl-2-hydroxy-3-(3-methoxy-benzylamino)-propyl]-4-phenyl-butyramide] | < 100 |
| CCC(=O)N[C@]1([C@@H](C)CC)CCN([C@@H](CCc2ccccc2)C(=O)N[C@@H](CC(C)C)[C@H](O)CNCc2cccc(OC)c2)C1=O [Example 4, 2(S)-(3(S)-((S)-sec-butyl)-2-oxo-3-propionylamino-pyrrolidin-1-yl)-N—(S)-{1(R)-[1-hydroxy-2-(3-methoxy-benzylamino)-ethyl]-3-methyl-butyl}-4-phenyl-butyramide] | 100 to 1000 |
| CC[C@H](C)[C@@]1(NC(=O)COC)CCN([C@@H](CCc2ccccc2)C(=O)N[C@@H](CC(C)C)[C@H](O)CNCc2cccc(OC)c2)C1=O [Example 5, (2S)-2-(3-((S)-sec-butyl)-3-(2-methoxy-acetylamino)-2-oxo-pyrrolidin-1-yl)-N—(S)-{1(R)-[1-hydroxy-2-(3-methoxy-benzylamino)-ethyl]-3-methyl-butyl}-4-phenyl-butyramide] | 1000 to 50000 |
| COc1cccc(CNC[C@@H](O)[C@H](Cc2ccccc2)NC(=O)[C@H](CCc2ccccc2)N2CC[C@@](CC3CC3)(NC(C)=O)C2=O)c1 [Example 6, (2S)-2-(3(R)-Acetylamino-3(-cyclopropylmethyl)-2-oxo-pyrrolidin-1-yl)-N-[(1S,2R)-1-benzyl-2-hydroxy-3-(3-methoxy-benzylamino)-propyl]-4-phenyl-butyramide] | 1000 to 50000 |
| COc1cccc(CNC[C@@H](O)[C@H](Cc2ccccc2)NC(=O)[C@H](CCc2ccccc2)N2CC[C@](CC3CC3)(NC(C)=O)C2=O)c1 [Example 7, (2S)-2-(3(S)-Acetylamino-3(-cyclopropylmethyl)-2-oxo-pyrrolidin-1-yl)-N-[(1S,2R)-1-benzyl-2-hydroxy-3-(3-methoxy-benzylamino)-propyl]-4-phenyl-butyramide] | < 100 |
| CC[C@H](C)[C@@]1(NC(=O)[C@@H](N)CCC(=O)O)CCN([C@@H](CCc2ccccc2)C(=O)N[C@@H](Cc2ccccc2)[C@H](O)CNCc2cccc(OC)c2)C1=O [Example 8] | < 100 |
| CC[C@H](C)[C@@]1(NC(=O)COC)CCN([C@@H](CCc2ccccc2)C(=O)N[C@@H](Cc2ccccc2)[C@H](O)CNCc2cccc(OC)c2)C1=O [Example 9, (2S)-2-(3(S)-(2-methoxy-acetylamino)-3-((S)-sec-butyl)-2-oxo-pyrrolidin-1-yl)-N-[(1S,2R)-1-benzyl-2-hydroxy-3-(3-methoxy-benzylamino)-propyl]-4-phenyl-butyramide] | < 100 |

— US7557137B2, “Gamma-lactams as beta-secretase inhibitors” (Bristol-Myers Squibb Company, priority 2002, dated 2009)
